From US20250206759A1, “FUSED RING COMPOUND, PHARMACEUTICAL COMPOSITION CONTAINING SAME, AND USE OF FUSED RING COMPOUND” (CHENGDU HYPERWAY PHARMACEUTICALS CO., LTD., priority 2022, published 2025) come the findings set out here.

Read-outs that look alike come from different tables or passages of the source.

The test system of data set [1] is KRas G12D-mediated ERK phosphorylation. The data set is described as follows: Inhibition of KRas G12D-mediated ERK phosphorylation in AGS cells. It is filed as cell-based. Particulars: read-out: AGS-pERK IC50. The method, then:
Day 1: AGS cells were seeded into 384-well cell culture plates and cultured overnight in a 37° C., 5% CO2 incubator.
Day 2: The compounds were added to the plates using Echo550 and incubated for 3 h in a 37° C., 5% CO2 incubator. Then cells were fixed with paraformaldehyde, permeated with methanol, and blocked with the blocking solution. Finally, a mixed solution of primary antibodies (rabbit anti pERK, mouse anti GAPDH) was added, and the mixture was incubated at 4° C. overnight.
Day 3: The mixed solution of primary antibodies was discarded, and a mixed solution of secondary antibodies (goat anti rabbit 800CW, goat anti mouse 680RD) was added. The mixture was incubated at room temperature in the dark. Finally, the cell culture plate was washed with PBST, and then inverted for 1 minute of centrifugation. The fluorescence signal values were read with Odyssey CLx.
ERK phosphorylation was calculated according to the following formula: […]
X: log value of compound concentration.
Y: average value of relative expression of p-ERK between replicate wells.

The nature of data set [2]: Pharmacokinetics of compounds in rats (oral). Format: in vivo, SD rats. Particulars: male SD rats. The method, then: Male SD rats were purchased from Shanghai SIPPR-Bk Lab Animal Co., Ltd. Each test compound was administered orally (3 rats per group) once to SD rats for pharmacokinetic study. The test compounds were prepared on the day of administration. The test compounds were suspended in 5% DMSO+95% saline, and then vortexed for 2 min and ultrasonicated for 5 min to prepare the administration system. The animals were fasted for 10-14 h before oral administration, and the feeding was resumed 4 h after administration. After oral administration by gavage, pharmacokinetic samples were collected from SD rats through the jugular vein. The collection time points were: before administration, 15 min, 30 min, 1 h, 2 h, 4 h, 6 h, 8 h and 24 h after administration. Three whole blood samples were collected at each time point, with a collection volume of about 0.2 mL, and anticoagulated with sodium heparin. After blood samples were collected, they were immediately placed on ice and centrifuged to separate plasma within 1 hour (centrifugation conditions: 6800 rpm, 6 min, 2-8° C.). The collected plasma was stored in a −80° C. refrigerator before analysis.

[3] abbreviates: male, SD, rat, plasma, po, 100 mg/kg, 100 mg/kg, read-out: AUC.
Setting [4] is: male, SD, rat, plasma, po, 100 mg/kg, 100 mg/kg, read-out: Cmax.

As a reminder, the IC50 is the concentration that inhibits the measured activity by half. `Oc1cc(-c2ncc3c(N4CC5CCC(C4)N5)nc(OCC45CCCN4[C@@H](c4ccc(C(F)(F)F)cc4)CC5)nc3c2F)c2c(F)c(F)ccc2c1` (single isomer, unassigned) [Example 202]: in data set [1] (Homo sapiens, AGS), the IC50 is 1.8 nM.
Turning to `Oc1cc(-c2ncc3c(N4CC5CCC(C4)N5)nc(OCC45CCCN4C(c4cccc(F)c4)CC5)nc3c2F)c2c(F)c(F)ccc2c1` (stereo not drawn) [Example 110], the IC50 in data set [1] (Homo sapiens, AGS) was 35 nM.
For orientation: AUC means the area under the concentration-time curve, a measure of exposure. The Cmax is the peak of the concentration-time curve. On to `Oc1cc(-c2ncc3c(N4CC5CCC(C4)N5)nc(OCC45CCCN4C(c4ccc(F)cc4)CC5)nc3c2F)c2c(F)c(F)ccc2c1` (stereo not drawn) [Example 108], for which, in data set [2] (setting [3]), the AUC was determined as 2090 ng·h/mL. The Cmax in data set [2] (setting [4]) was determined as 157 ng/mL. Also, the IC50 in data set [1] is 14 nM.
For `C#Cc1c(F)ccc2cc(O)cc(-c3ncc4c(N5CC6CCC(C5)N6)nc(OCC56CCCN5C(c5ccc7c(c5)COC7)CC6)nc4c3F)c12` (stereo not drawn) [Example 178], the IC50 in data set [1] (Homo sapiens, AGS) is 3.8 nM.
Same read-out and setting: the figure for `COc1ccc(C2CCC3(COc4nc(N5CC6CCC(C5)N6)c5cnc(-c6cc(O)cc7ccc(F)c(F)c67)c(F)c5n4)CCCN23)cc1OC` (stereo not drawn) [Example 113] is 15 nM.
On to `C#Cc1c(F)ccc2cc(O)cc(-c3ncc4c(N5CC6CCC(C5)N6)nc(OCC56CCCN5C(c5ccc(F)cc5)CC6)nc4c3F)c12` (stereo not drawn) [Example 188], for which the AUC in data set [2] (setting [3]) was found to be 862 ng·h/mL. Also, the Cmax in data set [2] (setting [4]) is 149 ng/mL. The IC50 in data set [1] (Homo sapiens, AGS) was 5.2 nM.
`COc1cc([C@H]2CCC3(COc4nc(N5CC6CCC(C5)N6)c5cnc(-c6cc(O)cc7ccc(F)c(F)c67)c(F)c5n4)CCCN23)ccc1C(F)(F)F` (mixture of isomers) [Example 228]: in data set [1] (Homo sapiens, AGS), the IC50 is 1.9 nM.
Turning to `Oc1cc(-c2ncc3c(N4CC5CCC(C4)N5)nc(OCC45CCCN4C(c4ccc(Cl)c(C(F)(F)F)c4)CC5)nc3c2F)c2c(F)c(F)ccc2c1` (stereo not drawn) [Example 227], the AUC in data set [2] (setting [3]) was determined as 245 ng·h/mL. Also, the Cmax in data set [2] (setting [4]) came out at 52 ng/mL. Besides, the IC50 in data set [1] (Homo sapiens, AGS) was 2.4 nM.
On to `Oc1cc(-c2ncc3c(N4CC5CCC(C4)N5)nc(OCC45CCCN4C(c4ccc6c(c4)OCO6)CC5)nc3c2F)c2c(F)c(F)ccc2c1` (stereo not drawn) [Example 114], for which the IC50 in data set [1] (Homo sapiens, AGS) turned out to be 14 nM.
Consider `CC1(C)OCc2cc(C3CCC4(COc5nc(N6C[C@H]7CC[C@@H](C6)N7)c6cnc(-c7cc(O)cc8ccc(F)c(F)c78)c(F)c6n5)CCCN34)ccc21` (stereo partly drawn) [Example 146, 4-(4-((1R,5S)-3,8-diazabicyclo[3.2.1]octan-3-yl)-2-((3-(1,1-dimethyl-1,3-dihydroisobenzofuran-5-yl)tetrahydro-1H-pyrrolizin-7a(5H)-yl)methoxy)-8-fluoropyrido[4,3-d]pyrimidin-7-yl)-5,6-difluoronaphthalen-2-ol], for which, in data set [2] (setting [3]), the AUC came out at 483 ng·h/mL. Further, in data set [2] (setting [4]), the Cmax turned out to be 143 ng/mL. In addition, the IC50 in data set [1] (Homo sapiens, AGS) turned out to be 11 nM.
For `Oc1cc(-c2ncc3c(N4C[C@H]5CC[C@@H](C4)N5)nc(OCC45CCCN4C(c4ccc6c(c4)COC6)CC5)nc3c2F)c2ccccc2c1` (stereo partly drawn) [Example 43, 4-(4-((1R,5S)-3,8-diazabicyclo[3.2.1]octan-3-yl)-2-((3-(1,3-dihydroisobenzofuran-5-yl)tetrahydro-1H-pyrrolidin-7a(5H)-yl)methoxy)-8-fluoropyrido[4,3-d]pyrimidin-7-yl)naphthalen-2-ol], in data set [2] (100 mg/kg), the AUC stood at 537 ng·h/mL and the Cmax was found to be 164 ng/mL. Further, the 50% inhibitory concentration (IC50) in data set [1] worked out at 41 nM.
As to `Cc1cc(N)cc(-c2ncc3c(N4CC5CCC(C4)N5)nc(OCC45CCCN4[C@@H](c4ccc6c(c4)OC(F)(F)O6)CC5)nc3c2F)c1C(F)(F)F` (mixture of isomers) [Example 235], in data set [1] (Homo sapiens, AGS), the IC50 came to 13 nM.
Still for that read-out and setting: the figure for `C#Cc1c(F)ccc2cc(O)cc(-c3ncc4c(N5CC6CCC(C5)N6)nc(OCC56CCCN5[C@@H](c5ccc(OC(F)(F)F)cc5)CC6)nc4c3F)c12` (mixture of isomers) [Example 214] is 1 nM; for `Oc1cc(-c2ncc3c(N4CC5CCC(C4)N5)nc(OCC45CCCN4[C@@H](c4ccc(F)c(F)c4)CC5)nc3c2F)c2c(F)c(F)ccc2c1` (mixture of isomers) [Example 224] it is 0.7 nM.
Regarding `Oc1cc(-c2ncc3c(N4CC5CCC(C4)N5)nc(OCC45CCCN4[C@@H](c4ccc6c(c4)COC6)CC5)nc3c2F)c2c(F)c(F)ccc2c1` (mixture of isomers) [Example 217], in data set [1] (Homo sapiens, AGS), the IC50 worked out at 1.3 nM.
On the same count and under the same terms, the figure for `Nc1cc(Cl)c(C(F)(F)F)c(-c2ncc3c(N4CC5CCC(C4)N5)nc(OCC45CCCN4C(c4ccc(F)c(F)c4)CC5)nc3c2F)c1` (stereo not drawn) [Example 244] is 6.4 nM.
In the case of `C#Cc1c(F)ccc2cc(O)cc(-c3ncc4c(N5C[C@H]6CC[C@@H](C5)N6)nc(OCC56CCCN5C(c5ccc(OC)cc5)CC6)nc4c3F)c12` (stereo partly drawn) [Example 52, 4-(4-((1R,5S)-3,8-diazabicyclo[3.2.1]octan-3-yl)-8-fluoro-2-((3-(4-methoxyphenyl)tetrahydro-1H-pyrrolidin-7a(5H)-yl)methoxy)pyrido[4,3-d]pyrimidin-7-yl)-5-ethynyl-6-fluoronaphthalen-2-ol], in data set [1], the IC50 turned out to be 6 nM.
On to `C#Cc1c(F)ccc2cc(O)cc(-c3ncc4c(N5CC6CCC(C5)N6)nc(OCC56CCCN5[C@@H](c5ccc(F)cc5)CC6)nc4c3F)c12` (single isomer, unassigned) [Example 196], for which the IC50 in data set [1] (Homo sapiens, AGS) worked out at 1.4 nM.
As to `Oc1cc(-c2ncc3c(N4CC5CCC(C4)N5)nc(OCC45CCCN4[C@@H](c4ccc(C(F)(F)F)c(C(F)(F)F)c4)CC5)nc3c2F)c2c(F)c(F)ccc2c1` (mixture of isomers) [Example 219], the IC50 in data set [1] (Homo sapiens, AGS) was 6.2 nM.
As to `Cc1ccc([C@H]2CCC3(COc4nc(N5CC6CCC(C5)N6)c5cnc(-c6cc(O)cc7ccc(F)c(F)c67)c(F)c5n4)CCCN23)cc1` (mixture of isomers) [Example 213], in data set [1] (Homo sapiens, AGS), the IC50 came to 1.8 nM.
On to `Oc1cc(-c2ncc3c(N4CC5CCC(C4)N5)nc(OCC45CCCN4[C@@H](c4ccc6ccccc6c4)CC5)nc3c2F)c2c(F)c(F)ccc2c1` (mixture of isomers) [Example 218], for which, in data set [1] (Homo sapiens, AGS), the IC50 stood at 2.4 nM.
As for `C#Cc1c(F)ccc2cc(O)cc(-c3ncc4c(N5CC6CCC(C5)N6)nc(OCC56CCCN5[C@@H](c5ccc(C(F)(F)F)cc5)CC6)nc4c3F)c12` (single isomer, unassigned) [Example 204], the IC50 in data set [1] (Homo sapiens, AGS) came to 0.78 nM.
In the case of `Oc1cc(-c2ncc3c(N4CC5CCC(C4)N5)nc(OCC45CCCN4[C@@H](c4ccc(F)cc4)CC5)nc3c2F)c2c(F)c(F)ccc2c1` (single isomer, unassigned) [Example 193], the IC50 in data set [1] (Homo sapiens, AGS) stood at 9.1 nM.
Same read-out and setting: the figure for `COc1ccc([C@H]2CCC3(COc4nc(N5CC6CCC(C5)N6)c5cnc(-c6cc(O)cc7ccc(F)c(F)c67)c(F)c5n4)CCCN23)cc1OC(F)(F)F` (stereo partly drawn) [Example 216] is 1.6 nM.
As for `Nc1ccc(C(F)(F)F)c(-c2ncc3c(N4CC5CCC(C4)N5)nc(OCC45CCCN4[C@@H](c4ccc6c(c4)OC(F)(F)O6)CC5)nc3c2F)c1` (mixture of isomers) [Example 234], the AUC in data set [2] (setting [3]) is 1190 ng·h/mL. In addition, the Cmax in data set [2] (setting [4]) came to 182 ng/mL.
For `Oc1cc(-c2ncc3c(N4CC5CCC(C4)N5)nc(OCC45CCCN4C(c4ccc(OC(F)(F)F)cc4)CC5)nc3c2F)c2c(F)c(F)ccc2c1` (stereo not drawn) [Example 210], in data set [2] (setting [3]), the AUC came to 246 ng·h/mL. Further, in data set [2] (setting [4]), the Cmax amounted to 145 ng/mL.
Regarding “4-(4-((1R,5S)-3,8-diazabicyclo[3.2.1]octan-3-yl)-2-((3-(1,3-dihydroisobenzofuran-5-yl-1,1,3,3-d4)tetrahydro-1H-pyrrolizin-7a(5H)-yl)methoxy)-8-fluoropyridin[4,3-d]pyrimidin-7-yl)naphthalen-2-ol [Example 148]”, in data set [1], the IC50 was 12 nM.
`Oc1cc(-c2ncc3c(N4CC5CCC(C4)N5)nc(OCC45CCCN4C(c4ccc(F)cc4)CC5)nc3c2F)c2c(F)c(F)ccc2c1` (stereo not drawn) [Example 194]: the IC50 in data set [1] worked out at 1.1 nM.
Turning to `[2H]C1([2H])OCc2cc(C3CCC4(COc5nc(N6C[C@H]7CC[C@@H](C6)N7)c6cnc(-c7cc(O)cc8ccc(F)c(F)c78)c(F)c6n5)CCCN34)ccc21` (stereo partly drawn) [Example 151, 4-(4-((1R,5S)-3,8-diazabicyclo[3.2.1]octan-3-yl)-2-((3-(1,3-dihydroisobenzofuran-5-yl-1,1-d2)tetrahydro-1H-pyrrolizin-7a(5H)-yl)methoxy)-8-fluoropyrido[4,3-d]pyrimidin-7-yl)-5,6-difluoronaphthalen-2-ol], the IC50 in data set [1] (Homo sapiens, AGS) turned out to be 7.6 nM.
As for `Oc1cc(-c2ncc3c(N4CC5CCC(C4)N5)nc(OCC45CCCN4C(c4ccc(OC(F)(F)F)cc4)CC5)nc3c2F)c2ccccc2c1` (stereo not drawn) [Example 118], the AUC in data set [2] (male, SD, rat, plasma, po, 10 mg/kg, 10 mg/kg, read-out: AUC) was 224 ng·h/mL; in data set [2] (setting [3]) it was 1290 ng·h/mL. Besides, the Cmax in data set [2] (male, SD, rat, plasma, po, 10 mg/kg, 10 mg/kg, read-out: Cmax) turned out to be 31 ng/mL; in data set [2] (setting [4]), 115 ng/mL.
